Results from PubChem BioAssay (NCI).
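1) Cells in 96-well plates. 2) Compound, 48 h, 5 concentrations. 3) Linear interpolation between surrounding doses. 4) Unreached endpoint = highest concentration. TGI is the concentration that stops growth completely.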

Tests used:
Assay in all cases: NCI tumour cell line growth inhibition, 48 h
786-0 renal = test system: 786-0 renal
A498 renal = test system: A498 renal
A549 NSCLC = test system: A549 NSCLC
ACHN renal = test system: ACHN renal
BT-549 breast = test system: BT-549 breast
CAKI-1 renal = test system: CAKI-1 renal
CCRF-CEM leukemia = test system: CCRF-CEM leukemia
COLO 205 colon = test system: COLO 205 colon
DU-145 prostate = test system: DU-145 prostate
EKVX NSCLC = test system: EKVX NSCLC
HCC-2998 colon = test system: HCC-2998 colon
HCT-116 colon = test system: HCT-116 colon
HCT-15 colon = test system: HCT-15 colon
HL-60(TB) leukemia = test system: HL-60(TB) leukemia
HOP-62 NSCLC = test system: HOP-62 NSCLC
HOP-92 NSCLC = test system: HOP-92 NSCLC
HS 578T breast = test system: HS 578T breast
HT29 colon = test system: HT29 colon
IGROV1 ovarian = test system: IGROV1 ovarian
K-562 leukemia = test system: K-562 leukemia
KM12 colon = test system: KM12 colon
LOX IMVI melanoma = test system: LOX IMVI melanoma
M14 melanoma = test system: M14 melanoma
MALME-3M melanoma = test system: MALME-3M melanoma
MCF7 breast = test system: MCF7 breast
MDA-MB-231 breast = test system: MDA-MB-231 breast
MDA-MB-435 = test system: MDA-MB-435
MDA-N = test system: MDA-N
MOLT-4 leukemia = test system: MOLT-4 leukemia
NCI-H226 lung = test system: NCI-H226 lung
NCI-H23 lung = test system: NCI-H23 lung
NCI-H460 lung = test system: NCI-H460 lung
NCI-H522 lung = test system: NCI-H522 lung
NCI/ADR-RES ovarian = test system: NCI/ADR-RES ovarian
OVCAR-3 ovarian = test system: OVCAR-3 ovarian
OVCAR-4 ovarian = test system: OVCAR-4 ovarian
OVCAR-5 ovarian = test system: OVCAR-5 ovarian
OVCAR-8 ovarian = test system: OVCAR-8 ovarian
PC-3 prostate = test system: PC-3 prostate
RPMI-8226 leukemia = test system: RPMI-8226 leukemia
RXF 393 renal = test system: RXF 393 renal
SF-268 CNS = test system: SF-268 CNS
SF-295 CNS = test system: SF-295 CNS
SF-539 CNS = test system: SF-539 CNS
SK-MEL-2 melanoma = test system: SK-MEL-2 melanoma
SK-MEL-28 melanoma = test system: SK-MEL-28 melanoma
SK-MEL-5 melanoma = test system: SK-MEL-5 melanoma
SK-OV-3 ovarian = test system: SK-OV-3 ovarian
SN12C renal = test system: SN12C renal
SNB-19 CNS = test system: SNB-19 CNS
SNB-75 CNS = test system: SNB-75 CNS
SR leukemia = test system: SR leukemia
SW-620 colon = test system: SW-620 colon
T-47D breast = test system: T-47D breast
TK-10 renal = test system: TK-10 renal
U251 CNS = test system: U251 CNS
UACC-257 melanoma = test system: UACC-257 melanoma
UACC-62 melanoma = test system: UACC-62 melanoma
UO-31 renal = test system: UO-31 renal

Measured: TGI

CC(C)(C)[C@H]1CCC2(OCCO2)[C@](O)(CCCO)C1
> 100 µM: all assays above
